Source: PubChem BioAssay (NCI)
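48-hour exposure; five concentrations; linearly interpolated endpoints. The concentration for full growth arrest is given as TGI.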

Experiments:
Test in all cases: growth of human tumour cells (NCI), 48 h
LOX IMVI melanoma = system: LOX IMVI melanoma
CAKI-1 renal = system: CAKI-1 renal
DU-145 prostate = system: DU-145 prostate
MALME-3M melanoma = system: MALME-3M melanoma
HL-60(TB) leukemia = system: HL-60(TB) leukemia
TK-10 renal = system: TK-10 renal
MDA-N = system: MDA-N
HCT-116 colon = system: HCT-116 colon
ACHN renal = system: ACHN renal
UO-31 renal = system: UO-31 renal

Row | SMILES | TGI (LOX IMVI melanoma) [µM] | TGI (CAKI-1 renal) [µM] | TGI (DU-145 prostate) [µM] | TGI (MALME-3M melanoma) [µM] | TGI (HL-60(TB) leukemia) [µM] | TGI (TK-10 renal) [µM] | TGI (MDA-N) [µM] | TGI (HCT-116 colon) [µM] | TGI (ACHN renal) [µM] | TGI (UO-31 renal) [µM]
1 | Cc1nn(C(=O)c2ccc(Cl)cc2)c2c1C(c1ccccc1O)SC(N)=N2 (stereo not given) | > 10 | > 10 | > 10 | > 10 | > 10 | > 10 | > 10 | > 10 | > 10 | –
2 | COc1ccc(C(=O)N2CCN(c3ccc4c(c3)OCC(=O)N4)CC2)cc1OC | > 100 | – | > 100 | > 100 | > 100 | > 100 | > 100 | > 100 | > 100 | > 100
3 | COc1ccc2nc3c(C)cc4ccccc4n3c2c1 | – | – | > 100 | > 100 | > 100 | > 100 | > 100 | > 100 | > 100 | > 100
4 | O=S(=O)(Nc1nccs1)c1ccc([As](=O)(O)O)cc1 | > 100 | > 100 | > 100 | > 100 | > 100 | > 100 | – | > 100 | > 100 | > 100
5 | CC1OC(OC2C(OC(=O)[C@]34CCC(C)(C)CC3C3=CCC5[C@@]6(C)C[C@H](O)[C@H](OC7OC(COC8OC(CO)C(O)C(O)C8O)C(O)C(O)C7O)[C@@](C)(C(=O)O)C6CC[C@@]5(C)C3(C)CC4)OCC(O)C2O)C(O)C(O)C1OC1OCC(O)C(O)C1O (stereo not given in full) | > 100 | > 100 | – | > 100 | > 100 | > 100 | – | – | > 100 | > 100
6 | O=C(CSc1nnc(Cc2ccccc2)o1)Nc1ccc(Cl)cc1[N+](=O)[O-] | 26.3 | – | – | 30.2 | 61.5 | 30.8 | – | 27.7 | 25.2 | 49.4
7 | O=[N+]([O-])c1ccc(Cc2nc3cc4ccccc4cc3[nH]2)cc1C(F)(F)F | > 100 | 26.7 | 57.2 | 25.1 | > 100 | 35.8 | – | 26.8 | 29.3 | 40.4
8 | C/C(=N\Nc1nc2ccccc2o1)c1ncccn1 | 0.199 | 1.57 | > 50.8 | – | – | 18.2 | > 54.5 | 17 | 11.3 | 0.609
9 | CC(C)(C)CNCCCNc1ccc(Cl)cc1 | 46.9 | – | > 100 | 53.9 | 0.172 | 73.9 | > 100 | > 100 | > 100 | > 100
10 | Cc1ccc(N=NN(C)C(C)C(O)Cc2ccccc2)cc1 (stereo not given) | – | > 100 | > 100 | > 100 | > 100 | > 100 | > 100 | > 100 | > 100 | > 100
11 | Cc1n[nH]c(=O)n1Nc1ccccc1 | > 100 | > 100 | > 100 | > 100 | > 100 | – | > 100 | > 100 | > 100 | > 100
12 | C=CCOC1CC(n2cnc3c(N)ncnc32)OC1CO (stereo not given) | – | > 100 | – | > 100 | > 100 | > 100 | – | > 100 | > 100 | > 100
